Assay results as given in ChEMBL document CHEMBL1743341, “Cytochrome p450 enzymes mechanism based inhibitors: common sub-structures and reactivity” (Curr Drug Metab, 2005).
Values belong to the molecule of their own block, whether it stands above or below them.

Key:
[1] = target: T1, CYP2B11 (Canis lupus familiaris, UniProt P24460); assay: (§1) Mechanism based inhibition of dog cytochrome P450 CYP2B11 measured by Diazepam N1-demethylation using liver microsomes; assay type: ADME, Microsome; settings: dog, liver microsomes, probe diazepam (N1-demethylation)
[2] = target: T2, Cytochrome P450 2B11 (Canis lupus familiaris, UniProt P24460); assay: as §1; assay type: ADME, Microsome
[3] = target: T1, CYP2B11; assay: (§2) Mechanism based inhibition of dog cytochrome P450 CYP2B11 measured by Diazepam N1-demethylation using recombinant enzyme; assay type: ADME; settings: dog, recombinant CYP2B11, probe diazepam (N1-demethylation)
[4] = target: T2, Cytochrome P450 2B11; assay: as §2; assay type: ADME
[5] = target: Cytochrome P450 3A12 (Canis lupus familiaris, UniProt P24463); assay: Mechanism based inhibition of dog cytochrome P450 CYP3A12; assay type: ADME
[6] = target: T3, Cytochrome P450 2E1 (Rattus norvegicus, UniProt P05182); assay: Mechanism based inhibition of rat cytochrome P450 CYP2E1; assay type: ADME
[7] = target: CYP2E1 (Rattus norvegicus, UniProt P05182); assay: (§3) Mechanism based inhibition of rat cytochrome P450 CYP2E1 measured by P-nitrophenol (PNP) hydroxylase activity; assay type: ADME; settings: rat, probe p-nitrophenol (PNP hydroxylase activity)
[8] = target: T3, Cytochrome P450 2E1; assay: as §3; assay type: ADME
[9] = target: T4, Cytochrome P450 1A1 (Homo sapiens, UniProt P04798); assay: Mechanism based inhibition of human cytochrome P450 1A1 measured by 7-ethoxyresorufin O-deethylation (EROD); assay type: ADME
T4 sequence (P04798 whole entry): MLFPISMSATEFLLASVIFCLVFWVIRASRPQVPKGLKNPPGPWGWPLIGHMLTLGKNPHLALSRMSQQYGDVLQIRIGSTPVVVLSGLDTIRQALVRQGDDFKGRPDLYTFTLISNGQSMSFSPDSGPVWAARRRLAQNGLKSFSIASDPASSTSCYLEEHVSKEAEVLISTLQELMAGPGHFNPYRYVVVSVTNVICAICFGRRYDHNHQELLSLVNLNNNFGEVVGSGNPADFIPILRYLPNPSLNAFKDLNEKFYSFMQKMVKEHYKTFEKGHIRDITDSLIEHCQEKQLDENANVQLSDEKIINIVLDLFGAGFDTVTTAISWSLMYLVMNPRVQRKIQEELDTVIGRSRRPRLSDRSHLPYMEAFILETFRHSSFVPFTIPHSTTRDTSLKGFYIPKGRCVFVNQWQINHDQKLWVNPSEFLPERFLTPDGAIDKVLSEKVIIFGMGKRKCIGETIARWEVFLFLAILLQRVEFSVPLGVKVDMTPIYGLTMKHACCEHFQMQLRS

[10] = target: T5, Cytochrome P450 1A2 (Homo sapiens, UniProt P05177); assay: Mechanism based inhibition of human cytochrome P450 1A2 measured by 7-ethoxyresorufin O-deethylation (EROD); assay type: ADME
T5 sequence (P05177 whole entry): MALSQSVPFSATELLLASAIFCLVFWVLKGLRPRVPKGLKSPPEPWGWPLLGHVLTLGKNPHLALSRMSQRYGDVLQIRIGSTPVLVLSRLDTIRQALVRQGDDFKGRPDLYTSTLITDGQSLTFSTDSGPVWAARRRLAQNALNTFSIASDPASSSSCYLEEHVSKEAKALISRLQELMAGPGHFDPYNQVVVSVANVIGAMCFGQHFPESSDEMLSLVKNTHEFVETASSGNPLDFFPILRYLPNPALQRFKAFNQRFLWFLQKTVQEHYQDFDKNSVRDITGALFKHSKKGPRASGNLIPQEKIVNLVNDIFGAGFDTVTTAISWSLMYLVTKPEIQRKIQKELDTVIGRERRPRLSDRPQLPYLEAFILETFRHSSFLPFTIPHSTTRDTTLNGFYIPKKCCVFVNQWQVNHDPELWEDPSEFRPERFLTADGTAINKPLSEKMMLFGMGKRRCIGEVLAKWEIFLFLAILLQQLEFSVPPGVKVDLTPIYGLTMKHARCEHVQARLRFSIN

[11] = target: T6, CYP1A1 (Rattus norvegicus, UniProt P00185); assay: (§4) Mechanism based inhibition of rat cytochrome P450 CYP1A1 measured by 7-ethoxyresorufin O-deethylation (EROD); assay type: ADME; settings: rat, probe 7-ethoxyresorufin (O-deethylation, EROD)
T6 sequence (P00185 whole entry): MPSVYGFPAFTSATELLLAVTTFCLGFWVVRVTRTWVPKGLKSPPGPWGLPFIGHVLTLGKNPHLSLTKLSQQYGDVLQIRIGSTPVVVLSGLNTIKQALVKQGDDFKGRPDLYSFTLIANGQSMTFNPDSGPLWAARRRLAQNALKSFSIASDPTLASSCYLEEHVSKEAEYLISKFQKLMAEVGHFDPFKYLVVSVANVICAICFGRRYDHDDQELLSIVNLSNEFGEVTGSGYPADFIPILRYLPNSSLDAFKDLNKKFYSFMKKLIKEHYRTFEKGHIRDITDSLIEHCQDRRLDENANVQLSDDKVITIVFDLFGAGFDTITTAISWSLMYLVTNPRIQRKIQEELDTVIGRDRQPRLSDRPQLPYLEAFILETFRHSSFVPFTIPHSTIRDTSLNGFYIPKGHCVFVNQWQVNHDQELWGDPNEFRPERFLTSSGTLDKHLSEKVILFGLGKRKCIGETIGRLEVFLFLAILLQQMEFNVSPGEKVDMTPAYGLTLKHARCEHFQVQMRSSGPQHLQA

[12] = target: T7, Cytochrome P450 1A1 (Rattus norvegicus, UniProt P00185); assay: as §4; assay type: ADME
T7 sequence (P00185 whole entry): T6 sequence (P00185 whole entry)

[13] = target: T8, CYP1A2 (Rattus norvegicus, UniProt P04799); assay: (§5) Mechanism based inhibition of rat cytochrome P450 CYP1A2; assay type: ADME; settings: rat
T8 sequence (P04799 whole entry): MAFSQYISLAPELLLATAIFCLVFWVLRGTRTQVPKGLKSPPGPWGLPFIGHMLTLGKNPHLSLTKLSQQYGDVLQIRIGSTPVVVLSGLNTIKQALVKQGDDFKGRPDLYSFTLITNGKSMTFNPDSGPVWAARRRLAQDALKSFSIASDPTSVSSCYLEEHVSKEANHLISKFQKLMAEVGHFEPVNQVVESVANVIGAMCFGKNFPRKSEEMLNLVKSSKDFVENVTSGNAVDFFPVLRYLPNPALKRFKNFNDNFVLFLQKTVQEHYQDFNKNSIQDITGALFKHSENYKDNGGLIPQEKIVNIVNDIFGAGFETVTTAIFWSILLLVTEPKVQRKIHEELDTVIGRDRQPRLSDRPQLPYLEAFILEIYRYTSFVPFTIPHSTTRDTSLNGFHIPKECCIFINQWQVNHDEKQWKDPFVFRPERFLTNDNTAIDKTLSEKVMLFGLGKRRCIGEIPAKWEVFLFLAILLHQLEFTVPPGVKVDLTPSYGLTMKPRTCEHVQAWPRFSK

[14] = target: T9, Cytochrome P450 1A2 (Rattus norvegicus, UniProt P04799); assay: as §5; assay type: ADME
T9 sequence (P04799 whole entry): T8 sequence (P04799 whole entry)

[15] = target: Cytochrome P450 2B10 (Mus musculus, UniProt P12791); assay: Mechanism based inhibition of mouse cytochrome P450 CYP2B10; assay type: ADME
[16] = target: T3, Cytochrome P450 2E1; assay: Mechanism based inhibition of rabbit cytochrome P450 CYP2E1 measured by P-nitrophenol (PNP) hydroxylase activity; assay type: ADME, Oryctolagus cuniculus; settings: target entry is the homologue from another species
[17] = target: Cytochrome P450 4A4 (Oryctolagus cuniculus, UniProt P10611); assay: Mechanism based inhibition of rabbit cytochrome P450 CYP4A4; assay type: ADME
Cytochrome P450 4A4, sequence (P10611 whole entry): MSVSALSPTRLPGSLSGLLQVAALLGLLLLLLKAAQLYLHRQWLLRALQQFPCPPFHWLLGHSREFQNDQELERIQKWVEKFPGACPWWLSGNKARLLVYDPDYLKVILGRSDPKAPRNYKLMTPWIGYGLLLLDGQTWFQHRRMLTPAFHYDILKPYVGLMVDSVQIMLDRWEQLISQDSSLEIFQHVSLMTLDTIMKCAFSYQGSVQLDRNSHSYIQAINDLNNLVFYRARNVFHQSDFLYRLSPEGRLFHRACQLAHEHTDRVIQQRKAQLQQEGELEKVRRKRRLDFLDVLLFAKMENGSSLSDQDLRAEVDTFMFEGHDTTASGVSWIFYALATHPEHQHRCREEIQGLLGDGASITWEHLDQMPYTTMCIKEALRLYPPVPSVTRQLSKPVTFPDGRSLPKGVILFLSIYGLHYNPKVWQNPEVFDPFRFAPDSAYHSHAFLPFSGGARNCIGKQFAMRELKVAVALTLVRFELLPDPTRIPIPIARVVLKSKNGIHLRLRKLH

T3 sequence (P05182 whole entry): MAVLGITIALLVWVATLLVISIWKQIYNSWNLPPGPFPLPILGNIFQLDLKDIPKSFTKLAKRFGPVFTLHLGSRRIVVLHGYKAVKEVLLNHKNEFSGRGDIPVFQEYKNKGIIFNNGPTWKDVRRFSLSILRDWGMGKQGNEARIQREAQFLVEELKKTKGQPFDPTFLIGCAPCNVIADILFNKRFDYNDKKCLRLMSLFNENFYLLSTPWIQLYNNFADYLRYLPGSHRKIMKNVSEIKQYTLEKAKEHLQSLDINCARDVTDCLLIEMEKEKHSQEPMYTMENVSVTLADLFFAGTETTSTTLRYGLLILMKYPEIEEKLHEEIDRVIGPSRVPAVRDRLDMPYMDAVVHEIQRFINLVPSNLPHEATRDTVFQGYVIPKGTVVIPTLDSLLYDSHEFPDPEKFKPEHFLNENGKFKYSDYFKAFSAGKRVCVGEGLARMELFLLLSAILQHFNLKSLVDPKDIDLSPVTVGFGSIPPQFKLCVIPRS
T2 sequence (P24460 whole entry): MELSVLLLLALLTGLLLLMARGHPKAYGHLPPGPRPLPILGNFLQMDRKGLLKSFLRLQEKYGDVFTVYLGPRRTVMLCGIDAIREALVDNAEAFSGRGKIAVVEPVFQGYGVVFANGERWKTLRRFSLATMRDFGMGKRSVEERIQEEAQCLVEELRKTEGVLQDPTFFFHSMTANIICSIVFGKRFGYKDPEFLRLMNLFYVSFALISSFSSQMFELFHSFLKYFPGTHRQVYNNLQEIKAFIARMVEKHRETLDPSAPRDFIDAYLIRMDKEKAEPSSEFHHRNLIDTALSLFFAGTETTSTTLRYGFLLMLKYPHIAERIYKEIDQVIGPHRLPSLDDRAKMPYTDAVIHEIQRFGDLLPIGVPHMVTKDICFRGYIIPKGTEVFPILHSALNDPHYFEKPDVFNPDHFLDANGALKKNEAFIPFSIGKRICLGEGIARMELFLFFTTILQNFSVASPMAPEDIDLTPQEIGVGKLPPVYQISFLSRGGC
T1 sequence (P24460 whole entry): as above
Cytochrome P450 3A12, sequence (P24463 whole entry): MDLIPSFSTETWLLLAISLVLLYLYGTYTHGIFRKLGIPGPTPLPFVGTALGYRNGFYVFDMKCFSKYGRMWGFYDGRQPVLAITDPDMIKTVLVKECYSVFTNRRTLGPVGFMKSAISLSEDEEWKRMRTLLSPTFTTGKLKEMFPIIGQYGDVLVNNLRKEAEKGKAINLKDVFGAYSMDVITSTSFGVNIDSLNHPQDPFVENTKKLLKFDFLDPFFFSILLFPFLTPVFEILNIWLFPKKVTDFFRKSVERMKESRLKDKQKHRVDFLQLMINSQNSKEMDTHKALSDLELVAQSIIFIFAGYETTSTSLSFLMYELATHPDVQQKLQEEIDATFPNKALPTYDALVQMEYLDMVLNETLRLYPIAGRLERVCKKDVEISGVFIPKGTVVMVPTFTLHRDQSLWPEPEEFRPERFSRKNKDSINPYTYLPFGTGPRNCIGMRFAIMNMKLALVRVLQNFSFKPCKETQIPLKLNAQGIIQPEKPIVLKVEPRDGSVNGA
Cytochrome P450 2B10, sequence (P12791 whole entry): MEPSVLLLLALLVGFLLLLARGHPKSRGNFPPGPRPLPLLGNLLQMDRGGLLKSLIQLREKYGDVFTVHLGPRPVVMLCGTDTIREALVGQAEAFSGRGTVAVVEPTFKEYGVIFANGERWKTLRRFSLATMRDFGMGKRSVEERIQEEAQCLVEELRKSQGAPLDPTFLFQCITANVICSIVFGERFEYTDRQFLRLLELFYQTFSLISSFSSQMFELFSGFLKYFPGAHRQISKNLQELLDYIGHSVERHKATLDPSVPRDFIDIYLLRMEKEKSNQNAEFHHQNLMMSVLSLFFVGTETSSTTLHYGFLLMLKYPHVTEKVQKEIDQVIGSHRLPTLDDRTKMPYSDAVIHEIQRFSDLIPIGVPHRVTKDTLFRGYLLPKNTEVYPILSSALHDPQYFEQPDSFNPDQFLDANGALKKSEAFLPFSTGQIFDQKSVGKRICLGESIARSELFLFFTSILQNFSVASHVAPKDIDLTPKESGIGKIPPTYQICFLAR
CYP2E1, sequence (P05182 whole entry): as the sequence (P05182 whole entry) above

kinact [1]: 0.00933 s⁻¹ | Ki [2]: 460 nM | kinact [3]: 0.025 s⁻¹ | Ki [4]: 350 nM
SMILES: CC(Nn1nnc2ccccc21)c1ccccc1 (stereo not drawn)
mechanism based inhibition [5]: Cytochrome P450 mechanistic inhibitor: PMID 15677349

kinact [7]: 0.00533 s⁻¹ | Ki [8]: 188000 nM
SMILES: C=CCS(=O)(=O)CC=C [DIALLYLSULFONE]
mechanism based inhibition [6]: Cytochrome P450 mechanistic inhibitor: PMID 9084912

SMILES: CC#Cc1ccc2c(ccc3ccccc32)c1
mechanism based inhibition [9]: Cytochrome P450 mechanistic inhibitor: PMID 9760279 | mechanism based inhibition [10]: Cytochrome P450 mechanistic inhibitor: PMID 9760279 | kinact [11]: 0.005 s⁻¹ | Ki [12]: 10 nM | kinact [13]: 0.005 s⁻¹ | Ki [14]: 30 nM

SMILES: Cc1c(N)c(C)c([N+](=O)[O-])c(C(C)(C)C)c1[N+](=O)[O-]
mechanism based inhibition [15]: Cytochrome P450 mechanistic inhibitor: PMID 9172959

SMILES: CC(C)(C)N=C=S
mechanism based inhibition [16]: Cytochrome P450 mechanistic inhibitor: PMID 9778311 | mechanism based inhibition [6]: Cytochrome P450 mechanistic inhibitor: PMID 9778311

SMILES: C#CCCCC(O)CCCCCCCCCCC(=O)O (stereo not drawn)
mechanism based inhibition [17]: Cytochrome P450 mechanistic inhibitor: PMID 9168258
